What is called IC50 is the midpoint of a concentration-inhibition curve. Low values mean greater potency, high ones weaker potency.

This note sets out measurements from ChEMBL document CHEMBL3098127, “A highly predictive 3D-QSAR model for binding to the voltage-gated sodium channel: design of potent new ligands” (Bioorg Med Chem, 2014).

For the first assay, the species on record is Rattus norvegicus. The conditions noted are these: Cerebral cortex.
`CCCC1(c2ccccc2)NC(=O)N(S(C)(=O)=O)C1=O` (stereo not drawn) registered a logIC50 of 2.7.

In turn, `Cc1cccc(C)c1NC(=O)C1CCCCN1C` (stereo not drawn) came in with a logIC50 of 2.28.

Compound `CN(C)C(=O)C(CCN1CCC(O)(c2ccc(Cl)cc2)CC1)(c1ccccc1)c1ccccc1` displayed a logIC50 of -0.56.

`C[N+](C)(CC(=O)Nc1ccccc1)CC(=O)Nc1ccccc1` showed a logIC50 of 0.59.

In the case of `CCCCCC(O)(C(=O)N1CCN(C(c2ccccc2)c2ccccc2)CC1)c1ccccc1` (stereo not drawn), the logIC50 is 0.68.

Regarding `CCCCCC1(c2ccccc2)OC(=O)NC1=O` (stereo not drawn), the logIC50 was determined as 2.5.

In turn, `CC(O)(C(=O)N1CCN(C(c2ccccc2)c2ccccc2)CC1)c1ccccc1` (stereo not drawn) gave a logIC50 of 0.8.

In turn, `CCCCC1(c2ccccc2)NC(=O)N(C)C1=O` (stereo not drawn) showed a logIC50 of 2.45.

The compound `O=C1NC(=O)C2(CCCCc3ccccc32)N1` (stereo not drawn) returned a logIC50 of 2.4.

`CCCCCC1(c2ccccc2)NC(=O)N(S(C)(=O)=O)C1=O` (stereo not drawn) came in with a logIC50 of 2.05.

In the case of `CCC(O)(C(=O)NCCC(c1ccccc1)c1ccccc1)c1ccccc1` (stereo not drawn), the logIC50 came to 0.91.

With `CCCCCCCC1(c2ccccc2)NC(=O)N(S(C)(=O)=O)C1=O` (stereo not drawn), the logIC50 amounted to 1.11.

With `O=C1NC(=O)C2(CCCc3ccccc32)N1` (stereo not drawn), the logIC50 was 2.93.

`CC(Cc1ccccc1)NCCC(c1ccccc1)c1ccccc1` (stereo not drawn) registered a logIC50 of -0.52.

With `CCCC1(c2ccccc2)OC(=O)NC1=O` (stereo not drawn), the logIC50 is 2.65.

`CCOC(=O)c1ccc(N)cc1` showed a logIC50 of 2.86.

`CCCNC(C)C(=O)Nc1ccccc1C` (stereo not drawn) showed a logIC50 of 1.73.

`CCCCCCCC1(c2ccccc2)OC(=O)NC1=O` (stereo not drawn) had a logIC50 of 1.48.

`CCOc1ccc(/N=C(\C)Nc2ccc(OCC)cc2)cc1` showed a logIC50 of 0.23.

In turn, `CCCCCC(O)(C(=O)NCCCc1ccccc1)c1ccccc1` (stereo not drawn) had a logIC50 of 0.72.

`NCCCCCCNS(=O)(=O)c1cccc2ccccc12`: the logIC50 was 1.34.

In turn, `CCCCc1cc2ccccc2c(OCCN(C)C)n1` registered a logIC50 of 0.53.

With `CCN1C(=O)NC(=O)C1(C)c1ccccc1` (stereo not drawn), the logIC50 stood at 2.4.

In turn, `CCCCCCCCCC(O)(C(N)=O)c1ccccc1` (stereo not drawn) registered a logIC50 of 0.81.

Consider `CC(C)CNCCOC(=O)c1ccc(N)cc1`, for which the logIC50 worked out at 1.74.

`COc1cc2nc(N3CCN(C(=O)c4ccco4)CC3)nc(N)c2cc1OC` had a logIC50 of 1.33.

`CCCCCCCC(O)(C(N)=O)c1ccccc1` (stereo not drawn): the logIC50 came out at 0.95.

`CC1CCCCN1CCCOC(=O)c1ccccc1` (stereo not drawn) returned a logIC50 of 1.11.

Regarding `CCCCOc1cc(C(=O)NCCN(CC)CC)c2ccccc2n1`, the logIC50 was 0.78.

In the case of `Cc1ccc2c(S(=O)(=O)NCCCCCCN)cccc2c1`, the logIC50 was 1.08.

On to `CCCCOc1cc(C(=O)OCCN(CC)CC)ccc1N`, for which the logIC50 was 0.46.

`CCN(CC)CCOC(=O)c1ccc(N)cc1`: the logIC50 stood at 2.04.

In turn, `CCC1(c2ccccc2)NC(=O)N(S(=O)(=O)c2ccc(C)cc2)C1=O` (stereo not drawn) showed a logIC50 of 1.7.

On to `COc1cc(C(=O)OCCCN2CCCN(CCCOC(=O)c3cc(OC)c(OC)c(OC)c3)CC2)cc(OC)c1OC`, for which the logIC50 was -0.22.

In turn, `CCCOc1cc(N)ccc1C(=O)OCCN(CC)CC` registered a logIC50 of 1.38.

As to `O=C1NC(=O)C2(CCCCCc3ccccc32)N1` (stereo not drawn), the logIC50 stood at 2.4.

As for `CCCNC(C)(C)COC(=O)c1ccccc1`, the logIC50 was 0.88.

Consider `OC(CCCN1CCCCC1)(c1ccccc1)c1ccccc1`, for which the logIC50 is 0.53.

As to `O=C1NC(=O)C(c2ccccc2)(c2ccccc2)N1`, the logIC50 was found to be 1.6.

For `CCCCCC(O)(C(=O)NCCc1ccccc1)c1ccccc1` (stereo not drawn), the logIC50 was 0.7.

`CN(C)C(=O)C(CCN1CCC(O)(c2ccc(Cl)c(C(F)(F)F)c2)CC1)(c1ccccc1)c1ccccc1` gave a logIC50 of 0.55.

The compound `CCC(O)(C(=O)NCCCc1ccccc1)c1ccccc1` (stereo not drawn) registered a logIC50 of 1.54.

In the case of `CC12C(=O)NC(=O)N1CCc1ccccc12` (stereo not drawn), the logIC50 was found to be 2.86.

`CCC(OCCCc1ccccc1)(C(=O)CCCCc1ccccc1)c1ccccc1` (stereo not drawn): the logIC50 was determined as 0.63.

`Clc1ccc(C(c2ccc(Cl)cc2)[n+]2ccn(CC(OCc3ccc(Cl)cc3Cl)c3ccc(Cl)cc3Cl)c2)cc1` (stereo not drawn) gave a logIC50 of 0.85.

With `CCCCCC(O)(C(=O)NCCC(c1ccccc1)c1ccccc1)c1ccccc1` (stereo not drawn), the logIC50 was 0.4.

As for `Cc1cccc(C)c1NC(=O)C(C)N` (stereo not drawn), the logIC50 came to 2.3.

With `CCCCN(CCCC)CCCOC(=O)c1ccc(N)cc1`, the logIC50 turned out to be 0.43.

`COc1ccc(CCN(C)CCCC(C#N)(c2cc(OC)c(OC)c(OC)c2)C(C)C)cc1OC` (stereo not drawn) had a logIC50 of 0.56.

Regarding `CCCCCCCC1(c2ccccc2)NC(=O)NC1=O` (stereo not drawn), the logIC50 worked out at 0.7.

As for `CCCCCC1(c2ccccc2)NC(=O)N(CN2CCN(C(c3ccccc3)c3ccccc3)CC2)C1=O` (stereo not drawn), the logIC50 turned out to be 0.11.

`CCCCCCC1(c2ccccc2)NC(=O)NC1=O` (stereo not drawn) had a logIC50 of 1.11.

Compound `CCC1(c2ccccc2)NC(=O)N(CN2CCN(C(c3ccccc3)c3ccccc3)CC2)C1=O` (stereo not drawn) gave a logIC50 of 0.52.

`CCCCCCCCCC1(c2ccccc2)NC(=O)NC1=O` (stereo not drawn) came in with a logIC50 of 0.7.

On to `OCCN1CCN(CCCN2c3ccccc3Sc3ccc(C(F)(F)F)cc32)CC1`, for which the logIC50 was determined as 0.57.

The compound `COC(=O)C1=C(C)NC(C)=C(C(=O)OCC(C)C)C1c1ccccc1[N+](=O)[O-]` (stereo not drawn) showed a logIC50 of 1.41.

Regarding `CCN(CC)CC(=O)Nc1c(C)cccc1C`, the logIC50 amounted to 1.68.

Regarding `CCCCCCCCCC1(c2ccccc2)NC(=O)N(Cc2ccccc2)C1=O` (stereo not drawn), the logIC50 is 0.71.

For the compound `CCOC(=O)C1=C(C)NC(C)=C(C(=O)OC)C1c1cccc([N+](=O)[O-])c1` (stereo not drawn), the logIC50 came to 1.56.

Compound `CCCCOc1ccc(OCCCN2CCOCC2)cc1` returned a logIC50 of 1.

Consider `CCC(O)(C(=O)NCCc1ccccc1)c1ccccc1` (stereo not drawn), for which the logIC50 amounted to 1.48.

In turn, `CCCCCCCCCC1(c2ccccc2)NC(=O)N(S(C)(=O)=O)C1=O` (stereo not drawn) came in with a logIC50 of 1.1.

With `CCN(CC)CCOC(=O)C1(C2CCCCC2)CCCCC1`, the logIC50 turned out to be 0.45.

Compound `CCOC(=O)C1=C(C)NC(C)=C(C(=O)OC)C1c1cccc(Cl)c1Cl` (stereo not drawn) came in with a logIC50 of 1.57.

As to `CC(C)COCC(CN(Cc1ccccc1)c1ccccc1)N1CCCC1` (stereo not drawn), the logIC50 was -0.08.

The compound `CCCCCC1(c2ccccc2)NC(=O)N(Cc2ccccc2)C1=O` (stereo not drawn) showed a logIC50 of 0.84.

Compound `CCCC1(c2ccccc2)NC(=O)NC1=O` (stereo not drawn) gave a logIC50 of 2.21.

`CCCCCC1(c2ccccc2)NC(=O)NC1=O` (stereo not drawn) showed a logIC50 of 1.59.

In turn, `CN(C)CCC(c1ccccc1)c1ccccn1` (stereo not drawn) came in with a logIC50 of 1.52.

`COC(=O)[C@H]1[C@@H](OC(=O)c2ccccc2)C[C@@H]2CC[C@H]1N2C` registered a logIC50 of 1.69.

`O=C1NC(=O)C2(CCc3ccccc32)N1` (stereo not drawn) registered a logIC50 of 3.32.

`O=C(CCCN1CCC(O)(c2ccc(Cl)cc2)CC1)c1ccc(F)cc1` returned a logIC50 of 0.08.

Tested on in another assay: not listed separately
As to the kind of experiment: Displacement of [3H]BTX-B from neuronal voltage-gated sodium channel in rat cerebral cortex synaptoneurosomes after 60 mins by scintillation counting. In kind it is tissue-based.
Details: not given
(In a radioligand displacement assay an active substance lowers the binding of a labelled ligand.)
The compound `c1ccc(C(CCCCNC(c2ccccc2)c2ccccc2)c2ccccc2)cc1` came in with an IC50 of 0.562 µM.

For the compound `c1ccc(CCCN2CCN(C(c3ccccc3)c3ccccc3)CC2)cc1`, the IC50 was found to be 0.192 µM.

In the case of `Cc1ccc(C(=O)CCCN2CCN(C(c3ccccc3)c3ccccc3)CC2)cc1C`, the IC50 turned out to be 0.156 µM.

In the case of `c1ccc(C(CCCNC(c2ccccc2)c2ccccc2)c2ccccc2)cc1`, the IC50 was found to be 1.33 µM.

For the compound `O=C(NCCN1CCN(C(c2ccccc2)c2ccccc2)CC1)c1ccccc1`, the IC50 is 0.283 µM.

`Fc1ccc(C(CCCN2CCN(C(c3ccccc3)c3ccccc3)CC2)c2ccc(F)cc2)cc1` registered a concentration for half-maximal inhibition (IC50) of 0.119 µM.

On to `c1ccc(C(CCNC(c2ccccc2)c2ccccc2)c2ccccc2)cc1`, for which the IC50 was determined as 0.76 µM.

`c1ccc(CCCNCCCc2ccccc2)cc1` registered an IC50 of 0.252 µM.

Compound `Fc1ccc(C(CCCNCCc2ccccc2)c2ccc(F)cc2)cc1` came in with an IC50 of 1.23 µM.

`c1ccc(CCCNCCc2ccccc2)cc1`: the IC50 amounted to 0.34 µM.

Take `c1ccc(CCN2CCN(C(c3ccccc3)c3ccccc3)CC2)cc1`: the IC50 is 0.257 µM.

`CC(C)(C)c1ccc(C(=O)CCCN2CCN(C(c3ccccc3)c3ccccc3)CC2)cc1` displayed an IC50 of 0.128 µM.

`c1ccc(C(CNC(c2ccccc2)c2ccccc2)c2ccccc2)cc1` yielded an IC50 of 3.16 µM.

On to `Fc1ccc(C(CCCNCCCc2ccccc2)c2ccc(F)cc2)cc1`, for which the IC50 turned out to be 0.229 µM.

Turning to `c1ccc(C(CCCCCNC(c2ccccc2)c2ccccc2)c2ccccc2)cc1`, the 50% inhibitory concentration (IC50) was found to be 0.345 µM.

The compound `c1ccc(C(CCCCCCNC(c2ccccc2)c2ccccc2)c2ccccc2)cc1` showed an IC50 of 0.56 µM.
